Data reported in ChEMBL document CHEMBL3808387, “Discovery of IWP-051, a Novel Orally Bioavailable sGC Stimulator with Once-Daily Dosing Potential in Humans” (ACS Med Chem Lett, 2016).
In brackets after ≈: the same amount, converted by molar mass. Values belong to the compound of their own block, whether it stands above or below them.

How the values were obtained:
[1] = target: Soluble guanylate cyclase (Homo sapiens) (UniProt Q02153+O75343+P33402+Q02108); assay: Activation of SGC in HEK293 cells assessed as cGMP production at 30 uM after 20 mins by LC-MS/MS analysis in presence of NO-donor DETA-NONOate; type: cell-based
[2] = Intrinsic clearance in Sprague-Dawley rat liver microsomes assessed per mg of protein at 2 uM after 10 to 30 mins by LC/MS/MS analysis in presence of NADPH; type: ADME; settings: read-out: CLH
[3] = Dissociation constant, pKa of the compound; type: physicochemical
[4] = Thermodynamic solubility of the compound at pH 7.4; type: physicochemical; settings: buffer, read-out: Therm_solubility
[5] = Thermodynamic solubility of the compound at pH 9.2; type: physicochemical; settings: buffer, read-out: Therm_solubility
[6] = Apparent permeability of compound from apical to basolateral side; type: physicochemical; settings: not told
[7] = target: Kappa-type opioid receptor (Homo sapiens, UniProt P41145); assay: Binding affinity to KOP receptor (unknown origin) at 10 uM
[8] = target: Dual specificity calcium/calmodulin-dependent 3',5'-cyclic nucleotide phosphodiesterase 1B (Homo sapiens) (UniProt Q01064); assay: Inhibition of PDE1B (unknown origin) at 10 uM
[9] = target: cGMP-dependent 3',5'-cyclic phosphodiesterase (Homo sapiens) (UniProt O00408); assay: Inhibition of PDE2A (unknown origin) at 10 uM
Sequence of cGMP-dependent 3',5'-cyclic phosphodiesterase (Homo sapiens) (O00408 whole entry): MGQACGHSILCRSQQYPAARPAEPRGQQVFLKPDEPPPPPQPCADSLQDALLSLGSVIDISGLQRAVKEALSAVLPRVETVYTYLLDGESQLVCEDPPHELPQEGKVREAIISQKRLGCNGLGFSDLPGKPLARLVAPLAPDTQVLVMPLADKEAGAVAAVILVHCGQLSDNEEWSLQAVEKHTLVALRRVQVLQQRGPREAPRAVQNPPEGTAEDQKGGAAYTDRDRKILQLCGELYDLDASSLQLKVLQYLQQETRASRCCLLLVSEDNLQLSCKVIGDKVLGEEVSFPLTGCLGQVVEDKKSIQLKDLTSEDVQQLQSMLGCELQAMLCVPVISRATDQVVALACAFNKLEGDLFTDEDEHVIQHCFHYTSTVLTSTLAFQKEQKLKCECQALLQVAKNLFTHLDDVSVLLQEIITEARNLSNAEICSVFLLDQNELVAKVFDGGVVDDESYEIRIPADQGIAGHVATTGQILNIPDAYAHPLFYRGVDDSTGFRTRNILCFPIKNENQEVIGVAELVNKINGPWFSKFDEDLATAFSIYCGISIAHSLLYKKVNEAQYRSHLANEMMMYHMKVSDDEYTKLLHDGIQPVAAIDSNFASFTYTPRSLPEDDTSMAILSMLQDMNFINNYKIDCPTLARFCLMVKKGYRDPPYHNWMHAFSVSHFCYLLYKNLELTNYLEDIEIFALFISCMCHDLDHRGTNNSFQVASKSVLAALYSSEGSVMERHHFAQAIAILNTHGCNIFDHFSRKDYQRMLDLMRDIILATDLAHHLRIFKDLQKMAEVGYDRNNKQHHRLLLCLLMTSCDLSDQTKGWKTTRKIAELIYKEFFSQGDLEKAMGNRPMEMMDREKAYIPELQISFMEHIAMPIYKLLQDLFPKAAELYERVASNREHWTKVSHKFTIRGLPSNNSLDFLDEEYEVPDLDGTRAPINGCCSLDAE

[10] = target: cGMP-inhibited 3',5'-cyclic phosphodiesterase 3A (Homo sapiens) (UniProt Q14432); assay: Inhibition of PDE3A (unknown origin) at 10 uM
Sequence of cGMP-inhibited 3',5'-cyclic phosphodiesterase 3A (Homo sapiens) (Q14432 whole entry): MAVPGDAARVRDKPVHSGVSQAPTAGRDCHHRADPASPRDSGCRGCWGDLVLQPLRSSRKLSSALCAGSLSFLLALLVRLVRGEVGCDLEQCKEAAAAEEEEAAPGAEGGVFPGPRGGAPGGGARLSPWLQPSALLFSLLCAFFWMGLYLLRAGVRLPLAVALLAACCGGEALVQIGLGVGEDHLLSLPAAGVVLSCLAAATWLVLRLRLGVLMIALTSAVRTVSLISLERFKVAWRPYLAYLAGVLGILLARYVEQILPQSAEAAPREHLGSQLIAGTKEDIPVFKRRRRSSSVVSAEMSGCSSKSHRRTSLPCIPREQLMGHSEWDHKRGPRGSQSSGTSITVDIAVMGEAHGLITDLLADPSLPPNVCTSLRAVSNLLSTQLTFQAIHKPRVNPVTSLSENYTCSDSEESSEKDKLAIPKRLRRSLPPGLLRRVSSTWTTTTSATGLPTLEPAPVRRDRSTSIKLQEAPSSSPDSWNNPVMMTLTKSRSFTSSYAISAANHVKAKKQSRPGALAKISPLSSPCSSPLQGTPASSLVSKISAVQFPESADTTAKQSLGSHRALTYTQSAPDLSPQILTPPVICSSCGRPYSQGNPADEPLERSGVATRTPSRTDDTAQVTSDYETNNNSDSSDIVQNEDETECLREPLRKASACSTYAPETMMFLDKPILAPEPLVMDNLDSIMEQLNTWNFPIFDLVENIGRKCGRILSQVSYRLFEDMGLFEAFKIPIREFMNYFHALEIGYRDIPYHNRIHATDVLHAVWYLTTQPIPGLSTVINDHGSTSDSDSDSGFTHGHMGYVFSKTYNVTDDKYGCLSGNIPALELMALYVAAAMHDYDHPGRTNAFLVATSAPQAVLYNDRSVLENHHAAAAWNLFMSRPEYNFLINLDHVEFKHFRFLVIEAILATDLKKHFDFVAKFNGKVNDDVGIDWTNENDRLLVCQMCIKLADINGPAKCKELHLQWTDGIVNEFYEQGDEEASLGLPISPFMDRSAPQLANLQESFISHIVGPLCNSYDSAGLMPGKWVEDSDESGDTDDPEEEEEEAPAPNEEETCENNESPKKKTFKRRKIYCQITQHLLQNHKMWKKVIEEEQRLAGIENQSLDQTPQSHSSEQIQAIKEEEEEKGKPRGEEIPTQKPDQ

[11] = target: 3',5'-cyclic-AMP phosphodiesterase 4D (Homo sapiens) (UniProt Q08499); assay: Inhibition of PDE4D2 (unknown origin) at 10 uM
[12] = target: cGMP-specific 3',5'-cyclic phosphodiesterase (Homo sapiens) (UniProt O76074); assay: Inhibition of PDE5 (unknown origin) at 10 uM
[13] = target: cAMP and cAMP-inhibited cGMP 3',5'-cyclic phosphodiesterase 10A (Homo sapiens) (UniProt Q9Y233); assay: Inhibition of PDE10A (unknown origin) at 10 uM
[14] = Volume of distribution at steady state in CD-1 mouse at 0.1 mg/kg, iv or 1 mg/kg, po by LC-MS/MS analysis; type: ADME, organism-based; settings: in vivo, read-out: Vdss
[15] = Volume of distribution at steady state in Sprague-Dawley rat at 0.1 mg/kg, iv or 1 mg/kg, po by LC-MS/MS analysis; type: ADME, organism-based; settings: in vivo, read-out: Vdss
[16] = Volume of distribution at steady state in Beagle dog at 0.1 mg/kg, iv or 1 mg/kg, po by LC-MS/MS analysis; type: ADME, organism-based, Canis lupus familiaris; settings: in vivo, read-out: Vdss
[17] = Tmax in CD-1 mouse at 0.1 mg/kg, iv or 1 mg/kg, po by LC-MS/MS analysis; type: ADME, organism-based; settings: in vivo
[18] = Tmax in Sprague-Dawley rat at 0.1 mg/kg, iv or 1 mg/kg, po by LC-MS/MS analysis; type: ADME, organism-based; settings: in vivo
[19] = Tmax in Beagle dog at 0.1 mg/kg, iv or 1 mg/kg, po by LC-MS/MS analysis; type: ADME, organism-based, Canis lupus familiaris; settings: in vivo
[20] = Cmax in CD-1 mouse at 1 mg/kg, po by LC-MS/MS analysis; type: ADME, organism-based; design: dose 1 mg/kg, route oral; settings: in vivo
[21] = Cmax in Sprague-Dawley rat at 1 mg/kg, po by LC-MS/MS analysis; type: ADME, organism-based; design: dose 1 mg/kg, route oral; settings: in vivo
[22] = Cmax in Beagle dog at 1 mg/kg, po by LC-MS/MS analysis; type: ADME, organism-based, Canis lupus familiaris; design: dose 1 mg/kg, route oral; settings: in vivo
[23] = AUC(0 to infinity) in CD-1 mouse at 0.1 mg/kg, iv or 1 mg/kg, po by LC-MS/MS analysis; type: ADME, organism-based; settings: in vivo
[24] = AUC(0 to infinity) in Sprague-Dawley rat at 0.1 mg/kg, iv or 1 mg/kg, po by LC-MS/MS analysis; type: ADME, organism-based; settings: in vivo
[25] = AUC(0 to infinity) in Beagle dog at 0.1 mg/kg, iv or 1 mg/kg, po by LC-MS/MS analysis; type: ADME, organism-based, Canis lupus familiaris; settings: in vivo
[26] = Oral bioavailability in CD-1 mouse at 1 mg/kg by LC-MS/MS analysis; type: ADME, organism-based; settings: in vivo
[27] = Oral bioavailability in Sprague-Dawley rat at 1 mg/kg by LC-MS/MS analysis; type: ADME, organism-based; settings: in vivo
[28] = Oral bioavailability in Beagle dog at 1 mg/kg by LC-MS/MS analysis; type: ADME, organism-based, Canis lupus familiaris; settings: in vivo
Rattus norvegicus [29] = assay: fCmax in Sprague-Dawley rat at 1 mg/kg, po after 5 hrs by LC-MS/MS analysis; type: ADME, organism-based; settings: in vivo
Rattus norvegicus [30] = assay: Reduction in mean arterial pressure in po dosed normotensive Sprague-Dawley rat measured after 12 to 24 hrs; type: functional; settings: Artery
Rattus norvegicus [31] = assay: Reduction in mean arterial pressure in normotensive Sprague-Dawley rat at 10 mg/kg, po measured after 12 to 24 hrs; type: functional, Artery
Rattus norvegicus [32] = assay: Reduction in mean arterial pressure in normotensive Sprague-Dawley rat at 30 mg/kg, po measured after 12 to 24 hrs; type: functional, Artery
[33] = Intrinsic clearance in human liver microsomes assessed per mg of protein at 2 uM after 10 to 30 mins by LC/MS/MS analysis in presence of NADPH; type: ADME; settings: read-out: CLH
[34] = target: Soluble guanylate cyclase (Homo sapiens, UniProt O75343+P33402+Q02108+Q02153); assay: Activation of SGC in HEK293 cells assessed as cGMP production after 20 mins by LC-MS/MS analysis in presence of NO-donor DETA-NONOate; type: cell-based
Sequence of Soluble guanylate cyclase (Q02153 whole entry): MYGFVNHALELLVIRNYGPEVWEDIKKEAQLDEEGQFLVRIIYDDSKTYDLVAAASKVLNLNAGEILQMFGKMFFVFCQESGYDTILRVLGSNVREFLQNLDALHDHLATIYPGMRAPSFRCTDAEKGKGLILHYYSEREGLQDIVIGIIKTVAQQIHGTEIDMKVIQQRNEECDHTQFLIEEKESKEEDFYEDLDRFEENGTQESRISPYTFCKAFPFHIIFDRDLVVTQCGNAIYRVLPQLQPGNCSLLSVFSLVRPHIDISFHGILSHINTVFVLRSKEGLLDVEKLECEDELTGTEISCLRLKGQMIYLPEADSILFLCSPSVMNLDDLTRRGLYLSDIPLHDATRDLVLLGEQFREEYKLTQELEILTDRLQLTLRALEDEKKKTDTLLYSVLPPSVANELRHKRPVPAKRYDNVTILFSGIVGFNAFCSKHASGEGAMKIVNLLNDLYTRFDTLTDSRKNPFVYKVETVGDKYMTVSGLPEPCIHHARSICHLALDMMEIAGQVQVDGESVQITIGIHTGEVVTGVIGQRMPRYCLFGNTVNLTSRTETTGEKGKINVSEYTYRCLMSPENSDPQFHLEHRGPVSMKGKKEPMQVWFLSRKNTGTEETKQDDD
Sequence of Soluble guanylate cyclase (O75343 whole entry): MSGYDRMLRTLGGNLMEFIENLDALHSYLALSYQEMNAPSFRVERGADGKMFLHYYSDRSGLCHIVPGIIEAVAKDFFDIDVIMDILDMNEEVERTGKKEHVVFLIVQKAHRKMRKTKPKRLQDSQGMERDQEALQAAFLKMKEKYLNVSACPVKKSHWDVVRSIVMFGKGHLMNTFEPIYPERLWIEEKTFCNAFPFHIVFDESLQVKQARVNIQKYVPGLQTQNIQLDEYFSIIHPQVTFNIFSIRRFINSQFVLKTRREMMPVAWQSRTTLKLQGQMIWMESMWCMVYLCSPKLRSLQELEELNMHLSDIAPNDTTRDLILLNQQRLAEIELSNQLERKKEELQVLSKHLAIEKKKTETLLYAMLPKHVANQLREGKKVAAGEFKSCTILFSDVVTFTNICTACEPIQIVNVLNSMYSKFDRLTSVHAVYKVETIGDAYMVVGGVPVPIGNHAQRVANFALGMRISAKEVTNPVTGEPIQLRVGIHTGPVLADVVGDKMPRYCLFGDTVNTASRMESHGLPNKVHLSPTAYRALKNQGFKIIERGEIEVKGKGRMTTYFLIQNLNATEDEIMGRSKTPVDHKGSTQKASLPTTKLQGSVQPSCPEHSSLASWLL
Sequence of Soluble guanylate cyclase (P33402 whole entry): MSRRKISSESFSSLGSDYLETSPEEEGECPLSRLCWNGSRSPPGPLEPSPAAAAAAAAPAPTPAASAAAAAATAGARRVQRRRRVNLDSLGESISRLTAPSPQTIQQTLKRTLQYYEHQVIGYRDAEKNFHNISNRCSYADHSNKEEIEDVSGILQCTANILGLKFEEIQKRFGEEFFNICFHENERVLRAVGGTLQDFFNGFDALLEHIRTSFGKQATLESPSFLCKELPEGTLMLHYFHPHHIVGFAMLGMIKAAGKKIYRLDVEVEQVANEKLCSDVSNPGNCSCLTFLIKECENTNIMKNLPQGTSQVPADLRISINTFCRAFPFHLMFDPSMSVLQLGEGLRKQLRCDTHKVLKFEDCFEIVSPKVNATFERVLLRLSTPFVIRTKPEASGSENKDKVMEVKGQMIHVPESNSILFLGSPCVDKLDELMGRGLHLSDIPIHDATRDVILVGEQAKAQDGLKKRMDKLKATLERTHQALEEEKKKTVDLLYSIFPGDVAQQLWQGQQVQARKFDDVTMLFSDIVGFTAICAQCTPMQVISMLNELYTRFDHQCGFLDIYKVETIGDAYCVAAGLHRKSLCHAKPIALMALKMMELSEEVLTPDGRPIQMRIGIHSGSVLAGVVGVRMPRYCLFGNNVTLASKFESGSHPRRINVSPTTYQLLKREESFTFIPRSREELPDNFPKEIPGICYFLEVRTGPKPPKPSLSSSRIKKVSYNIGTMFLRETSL
Sequence of Soluble guanylate cyclase (Q02108 whole entry): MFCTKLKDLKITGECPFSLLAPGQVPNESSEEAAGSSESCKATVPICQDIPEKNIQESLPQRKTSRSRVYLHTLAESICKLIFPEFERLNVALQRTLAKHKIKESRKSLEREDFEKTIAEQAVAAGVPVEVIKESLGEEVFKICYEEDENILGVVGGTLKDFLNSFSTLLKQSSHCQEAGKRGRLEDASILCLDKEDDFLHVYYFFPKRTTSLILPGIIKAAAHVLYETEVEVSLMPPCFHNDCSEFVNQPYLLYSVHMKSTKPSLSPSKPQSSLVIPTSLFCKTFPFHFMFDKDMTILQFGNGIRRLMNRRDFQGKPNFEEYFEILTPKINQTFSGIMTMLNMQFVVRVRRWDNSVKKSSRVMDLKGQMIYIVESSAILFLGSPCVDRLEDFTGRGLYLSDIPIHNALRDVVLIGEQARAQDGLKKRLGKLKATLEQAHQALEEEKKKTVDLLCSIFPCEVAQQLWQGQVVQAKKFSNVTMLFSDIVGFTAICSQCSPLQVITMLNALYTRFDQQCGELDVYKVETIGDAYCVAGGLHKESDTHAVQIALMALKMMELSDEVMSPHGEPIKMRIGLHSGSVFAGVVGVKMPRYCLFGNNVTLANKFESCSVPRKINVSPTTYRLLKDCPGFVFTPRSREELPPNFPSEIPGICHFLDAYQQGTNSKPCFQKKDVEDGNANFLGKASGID

SMILES: Oc1nc(-c2cc(-c3ncon3)n(Cc3ccccc3F)n2)ncc1F
Emax [1]: 68% | microsomal CLint at 2 µM [2]: 4 µL/min/mg

SMILES: Oc1nc(-c2cc(-c3ncco3)n(Cc3ccccc3F)n2)ncc1F
EC50 [34]: 1500 nM | microsomal CLint at 2 µM [2]: 68 µL/min/mg | microsomal CLint at 2 µM [33]: 42 µL/min/mg

SMILES: O=c1[nH]c(-c2cc(-c3ccon3)n(Cc3ccc(F)cc3F)n2)ncc1F
EC50 [34]: 530 nM | microsomal CLint at 2 µM [2]: 4 µL/min/mg | microsomal CLint at 2 µM [33]: 4 µL/min/mg

SMILES: Oc1nc(-c2cc(-c3cocn3)n(Cc3ccccc3F)n2)ncc1F
Emax [1]: 78% | microsomal CLint at 2 µM [2]: 9 µL/min/mg | microsomal CLint at 2 µM [33]: 4 µL/min/mg

SMILES: N#Cc1cc(-c2ncc(F)c(O)n2)nn1Cc1ccccc1F
Emax [1]: 73%

SMILES: Cc1cc(-c2cc(-c3ncc(F)c(O)n3)nn2Cc2ccccc2F)no1
Emax [1]: 23% | microsomal CLint at 2 µM [2]: 249 µL/min/mg | microsomal CLint at 2 µM [33]: 118 µL/min/mg

SMILES: Oc1nc(-c2cc(-c3ccon3)n(Cc3sccc3F)n2)ncc1F
EC50 [34]: 280 nM | microsomal CLint at 2 µM [2]: 13 µL/min/mg | microsomal CLint at 2 µM [33]: 11 µL/min/mg

SMILES: O=c1[nH]c(-c2cc(-c3ccon3)n(CCC(F)(F)C(F)(F)F)n2)ncc1F
EC50 [34]: 1500 nM | microsomal CLint at 2 µM [2]: 4 µL/min/mg | microsomal CLint at 2 µM [33]: 6 µL/min/mg

Continued, in another order:

pKa [3]: 5.75 | solubility thermodynamic [4]: 3 µg/mL (≈ 8.44 µM) | solubility thermodynamic [5]: 142 µg/mL (≈ 400 µM) | Papp A→B [6]: 21.8 ×10⁻⁶ cm/s | Activity [7]: 21% | inhibition [8]: < 30% | inhibition [9]: < 30% | inhibition [10]: < 30% | inhibition [11]: < 30% | inhibition [12]: < 30% | inhibition [13]: < 30% | Vd [14]: 1.3 L/kg | Vd [15]: 0.18 L/kg | Vd [16]: 0.095 L/kg | Tmax [17]: 1.7 h | Tmax [18]: 5.3 h | Tmax [19]: 3.3 h | Cmax [20]: 1000 ng/mL | Cmax [21]: 1500 ng/mL | Cmax [22]: 3500 ng/mL | AUC(0-inf) [23]: 4500 ng·h/mL | AUC(0-inf) [24]: 25000 ng·h/mL | AUC(0-inf) [25]: 41700 ng·h/mL | bioavailability [26]: > 100% | bioavailability [27]: 96% | bioavailability [28]: 45% | fCmax (Rattus norvegicus [29]): 80 nM
SMILES: Oc1nc(-c2cc(-c3ccon3)n(Cc3ccccc3F)n2)ncc1F
Activity (Rattus norvegicus [30]): Dose-dependent effect | minimal effective dose (Rattus norvegicus [30]; read-out: MED): 1 mg/kg | Activity (Rattus norvegicus [31]): 10 mmHg | Activity (Rattus norvegicus [32]): -30 mmHg

Emax [1]: 40% | microsomal CLint at 2 µM [2]: 8 µL/min/mg | microsomal CLint at 2 µM [33]: 8 µL/min/mg
SMILES: CC(C)(O)c1cnc(-c2cc(-c3ccon3)n(Cc3ccccc3F)n2)nc1O

EC50 [34]: 160 nM | microsomal CLint at 2 µM [2]: 15 µL/min/mg | microsomal CLint at 2 µM [33]: 6 µL/min/mg
SMILES: O=S(=O)(c1ccc(Cl)cc1)c1cnc(-c2cc(-c3ccon3)n(Cc3ccccc3F)n2)nc1O

microsomal CLint at 2 µM [33]: 20 µL/min/mg
SMILES: COc1nc(-c2cc(-c3ccon3)n(Cc3ccccc3F)n2)ncc1F

EC50 [34]: 500 nM | microsomal CLint at 2 µM [2]: 14 µL/min/mg | microsomal CLint at 2 µM [33]: 8 µL/min/mg
SMILES: N#Cc1cnc(-c2cc(-c3ccon3)n(Cc3ccccc3F)n2)nc1O

Emax [1]: 53% | microsomal CLint at 2 µM [2]: 26 µL/min/mg | microsomal CLint at 2 µM [33]: 14 µL/min/mg
SMILES: O=C(Nc1cnc(-c2cc(-c3ccon3)n(Cc3ccccc3F)n2)nc1O)c1ccccc1

Emax [1]: 35% | microsomal CLint at 2 µM [2]: 39 µL/min/mg | microsomal CLint at 2 µM [33]: 9 µL/min/mg
SMILES: Oc1nc(-c2cc(-c3ccccn3)n(Cc3ccccc3F)n2)ncc1F

EC50 [34]: 370 nM | microsomal CLint at 2 µM [2]: 3 µL/min/mg | microsomal CLint at 2 µM [33]: 7 µL/min/mg
SMILES: Oc1nc(-c2cc(-c3ccon3)n(Cc3cccc(F)c3F)n2)ncc1F

EC50 [34]: 350 nM | microsomal CLint at 2 µM [2]: 27 µL/min/mg | microsomal CLint at 2 µM [33]: 18 µL/min/mg
SMILES: O=S(=O)(c1ccccc1)c1cnc(-c2cc(-c3ccon3)n(Cc3ccccc3F)n2)nc1O
